Reference: ChEMBL document CHEMBL5625223 (Eur J Med Chem, 2023)
The source made the active and inactive calls. No cut-off for these calls is given here.

Legend:
[1] = target: T1, 5-hydroxytryptamine receptor 2C (Homo sapiens, UniProt P28335); assay: Binding affinity to 5HT2C receptor (unknown origin) assessed as inhibition constant
T1 sequence (P28335 whole entry): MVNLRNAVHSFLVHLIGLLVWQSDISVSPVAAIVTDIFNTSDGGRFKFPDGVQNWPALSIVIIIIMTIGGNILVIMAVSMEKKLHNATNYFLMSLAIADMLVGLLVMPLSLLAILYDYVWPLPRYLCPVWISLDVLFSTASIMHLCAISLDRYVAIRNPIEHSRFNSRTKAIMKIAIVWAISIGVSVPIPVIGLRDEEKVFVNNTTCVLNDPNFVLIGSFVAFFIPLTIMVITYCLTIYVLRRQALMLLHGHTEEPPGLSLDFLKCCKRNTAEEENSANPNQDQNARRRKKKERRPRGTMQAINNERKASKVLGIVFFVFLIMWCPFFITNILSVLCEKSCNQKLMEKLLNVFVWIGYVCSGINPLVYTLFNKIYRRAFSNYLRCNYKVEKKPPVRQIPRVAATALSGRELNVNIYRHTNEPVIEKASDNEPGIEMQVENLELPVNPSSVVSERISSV

[2] = target: T2, 5-hydroxytryptamine receptor 2B (Homo sapiens, UniProt P41595); assay: Binding affinity to 5HT2B receptor (unknown origin) assessed as inhibition constant
T2 sequence (P41595 whole entry): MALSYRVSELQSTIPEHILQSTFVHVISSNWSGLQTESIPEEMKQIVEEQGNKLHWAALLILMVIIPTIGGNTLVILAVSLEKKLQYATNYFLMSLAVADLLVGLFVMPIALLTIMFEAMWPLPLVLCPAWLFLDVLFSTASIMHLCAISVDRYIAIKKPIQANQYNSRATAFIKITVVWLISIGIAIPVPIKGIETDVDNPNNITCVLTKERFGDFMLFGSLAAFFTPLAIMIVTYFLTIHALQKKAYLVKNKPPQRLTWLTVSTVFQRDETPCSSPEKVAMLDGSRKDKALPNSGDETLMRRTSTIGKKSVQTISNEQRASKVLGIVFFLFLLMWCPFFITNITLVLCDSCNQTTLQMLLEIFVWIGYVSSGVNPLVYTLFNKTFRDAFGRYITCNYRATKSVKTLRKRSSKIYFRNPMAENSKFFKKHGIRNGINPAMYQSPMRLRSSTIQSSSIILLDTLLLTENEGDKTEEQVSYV

[3] = target: T3, Adenosine receptor A1 (Homo sapiens) (UniProt P30542); assay: Binding affinity to A1AR (unknown origin) at 10 uM relative to control; conditions: filed as agonist
T3 sequence (whole entry): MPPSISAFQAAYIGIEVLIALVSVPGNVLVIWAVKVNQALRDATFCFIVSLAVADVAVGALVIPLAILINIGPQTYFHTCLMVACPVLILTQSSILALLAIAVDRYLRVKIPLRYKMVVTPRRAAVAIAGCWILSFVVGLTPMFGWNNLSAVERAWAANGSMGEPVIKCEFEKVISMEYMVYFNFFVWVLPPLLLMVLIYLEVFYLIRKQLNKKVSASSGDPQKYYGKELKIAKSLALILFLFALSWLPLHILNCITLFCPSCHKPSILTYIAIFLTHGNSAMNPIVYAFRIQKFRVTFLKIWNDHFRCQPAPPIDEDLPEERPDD

[4] = target: T4, 5-hydroxytryptamine receptor 2A (Homo sapiens, UniProt P28223); assay: Binding affinity to 5HT2A receptor (unknown origin) at 10 uM relative to control
T4 sequence (P28223 whole entry): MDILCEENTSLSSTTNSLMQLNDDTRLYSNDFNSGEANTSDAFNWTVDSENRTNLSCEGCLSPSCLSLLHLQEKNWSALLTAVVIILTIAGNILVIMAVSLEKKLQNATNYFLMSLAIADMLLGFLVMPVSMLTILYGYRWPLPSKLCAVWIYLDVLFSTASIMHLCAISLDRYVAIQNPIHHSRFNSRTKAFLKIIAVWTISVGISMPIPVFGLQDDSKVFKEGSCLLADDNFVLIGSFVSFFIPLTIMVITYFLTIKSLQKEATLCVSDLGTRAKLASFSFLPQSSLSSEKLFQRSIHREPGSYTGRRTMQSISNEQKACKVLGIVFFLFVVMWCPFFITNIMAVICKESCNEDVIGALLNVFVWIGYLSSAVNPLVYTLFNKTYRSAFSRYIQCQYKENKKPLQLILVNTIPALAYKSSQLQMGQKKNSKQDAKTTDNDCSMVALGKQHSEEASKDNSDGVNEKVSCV

[5] = target: T2, 5-hydroxytryptamine receptor 2B; assay: Binding affinity to 5HT2B receptor (unknown origin) at 10 uM relative to control; conditions: filed as antagonist
[6] = target: Adenosine receptor A2a (Homo sapiens) (UniProt P29274); assay: Displacement of […] from human A2AR expressed in HEK cells at 10 uM relative to control; type: cell-based
Adenosine receptor A2a (Homo sapiens), sequence (P29274 whole entry): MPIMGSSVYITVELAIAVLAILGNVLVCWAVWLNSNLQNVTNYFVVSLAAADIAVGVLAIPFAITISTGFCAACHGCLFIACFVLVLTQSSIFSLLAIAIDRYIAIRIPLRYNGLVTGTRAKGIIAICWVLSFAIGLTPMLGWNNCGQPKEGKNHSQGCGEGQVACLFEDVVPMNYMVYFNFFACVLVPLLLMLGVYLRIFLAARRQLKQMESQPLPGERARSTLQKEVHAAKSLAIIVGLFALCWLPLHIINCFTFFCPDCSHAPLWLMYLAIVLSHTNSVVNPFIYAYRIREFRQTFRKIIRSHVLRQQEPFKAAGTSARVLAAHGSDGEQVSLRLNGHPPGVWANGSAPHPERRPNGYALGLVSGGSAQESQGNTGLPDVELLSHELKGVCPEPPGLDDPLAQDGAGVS

[7] = target: 5-hydroxytryptamine receptor 1D (Homo sapiens, UniProt P28221); assay: Binding affinity to 5HT1D receptor (unknown origin) assessed as inhibition constant
5-hydroxytryptamine receptor 1D, sequence (P28221 whole entry): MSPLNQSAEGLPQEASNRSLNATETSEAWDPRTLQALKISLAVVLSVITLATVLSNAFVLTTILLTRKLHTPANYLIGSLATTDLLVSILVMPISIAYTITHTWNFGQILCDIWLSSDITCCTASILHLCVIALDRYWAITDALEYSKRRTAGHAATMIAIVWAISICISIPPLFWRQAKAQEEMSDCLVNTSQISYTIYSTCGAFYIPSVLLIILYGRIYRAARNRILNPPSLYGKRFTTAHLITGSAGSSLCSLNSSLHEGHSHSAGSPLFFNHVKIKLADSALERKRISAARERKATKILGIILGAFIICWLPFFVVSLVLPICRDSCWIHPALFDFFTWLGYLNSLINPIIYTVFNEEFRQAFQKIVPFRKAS

[8] = target: T1, 5-hydroxytryptamine receptor 2C; assay: Displacement of [3H]-Mesulergine from human 5-HT2C expressed in Flp-In-T-REx-293 cells assessed as inhibition constant incubated for 1 hr; type: cell-based; conditions: read-out: Ki
[9] = target: T5, Alpha-2B adrenergic receptor (Homo sapiens, UniProt P18089); assay: Binding affinity to alpha2B receptor (unknown origin) assessed as inhibition constant
T5 sequence (P18089 whole entry): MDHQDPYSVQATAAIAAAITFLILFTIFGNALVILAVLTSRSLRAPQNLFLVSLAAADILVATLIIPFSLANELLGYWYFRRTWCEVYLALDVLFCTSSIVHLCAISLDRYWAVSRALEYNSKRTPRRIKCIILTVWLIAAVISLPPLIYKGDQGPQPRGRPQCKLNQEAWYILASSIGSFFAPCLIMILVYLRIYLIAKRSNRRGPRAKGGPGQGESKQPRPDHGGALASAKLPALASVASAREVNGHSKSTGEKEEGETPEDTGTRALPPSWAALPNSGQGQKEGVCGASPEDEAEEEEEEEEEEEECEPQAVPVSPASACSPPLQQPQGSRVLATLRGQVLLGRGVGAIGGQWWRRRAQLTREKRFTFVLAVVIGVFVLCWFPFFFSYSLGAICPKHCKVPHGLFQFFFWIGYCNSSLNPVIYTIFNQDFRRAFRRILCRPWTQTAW

Adenosine receptor A3 = target: T6, Adenosine receptor A3 (Homo sapiens, UniProt P0DMS8); assay: Displacement of […] from human A3AR expressed in HEK cells assessed as inhibition constant; type: cell-based
T6 sequence (P0DMS8 whole entry): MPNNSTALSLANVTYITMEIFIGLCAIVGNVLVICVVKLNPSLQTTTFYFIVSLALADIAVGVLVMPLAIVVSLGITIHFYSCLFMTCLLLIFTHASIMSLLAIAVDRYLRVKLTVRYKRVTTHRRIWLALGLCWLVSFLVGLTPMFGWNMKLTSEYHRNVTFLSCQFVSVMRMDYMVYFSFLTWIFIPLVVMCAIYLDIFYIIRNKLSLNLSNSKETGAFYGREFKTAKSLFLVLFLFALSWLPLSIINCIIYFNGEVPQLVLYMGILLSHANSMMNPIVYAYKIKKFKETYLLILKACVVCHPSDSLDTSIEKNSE

[10] = target: T2, 5-hydroxytryptamine receptor 2B; assay: Displacement of [3H]-LSD from human 5-HT2B receptor expressed in HEK cells at 10 uM incubated for 1 hr relative to control; type: cell-based
[11] = target: T3, Adenosine receptor A1 (Homo sapiens); assay: Displacement of […] from human A1AR expressed in Flp-In-T-REx-293 cells at 1 uM relative to control; type: cell-based; conditions: filed as agonist
[12] = target: T2, 5-hydroxytryptamine receptor 2B; assay: Displacement of [3H]-LSD from human 5-HT2B receptor expressed in HEK cells assessed as inhibition constant incubated for 1 hr; type: cell-based
[13] = target: T7, Adenosine receptor A3 (Homo sapiens) (UniProt P0DMS8); assay: Displacement of […] from human A3AR expressed in HEK cells at 10 uM relative to control; type: cell-based
T7 sequence (whole entry): T6 sequence (P0DMS8 whole entry)

[14] = target: T4, 5-hydroxytryptamine receptor 2A; assay: Displacement of [3H]ketanserin from human 5-HT2A receptor expressed in HEK293 cells at 10 uM incubated for 1 hr relative to control; type: cell-based
[15] = target: Beta-3 adrenergic receptor (Homo sapiens, UniProt P13945); assay: Binding affinity to beta3 adrenergic receptor (unknown origin) assessed as inhibition constant
Beta-3 adrenergic receptor, sequence (P13945 whole entry): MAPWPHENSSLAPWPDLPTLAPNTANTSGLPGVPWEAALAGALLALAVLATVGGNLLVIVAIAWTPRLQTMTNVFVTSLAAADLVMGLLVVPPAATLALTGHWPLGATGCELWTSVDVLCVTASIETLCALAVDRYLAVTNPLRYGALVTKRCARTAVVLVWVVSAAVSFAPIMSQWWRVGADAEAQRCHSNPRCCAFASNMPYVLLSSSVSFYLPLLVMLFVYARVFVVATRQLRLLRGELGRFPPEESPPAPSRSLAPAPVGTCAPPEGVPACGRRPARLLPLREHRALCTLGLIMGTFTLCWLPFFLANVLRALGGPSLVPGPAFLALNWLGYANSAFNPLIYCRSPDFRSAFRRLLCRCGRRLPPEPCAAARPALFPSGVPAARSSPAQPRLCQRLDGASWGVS

[16] = target: T4, 5-hydroxytryptamine receptor 2A; conditions: Flp-In-T-REx-293, time 1.0 hrs
[17] = target: T2, 5-hydroxytryptamine receptor 2B; assay: Agonist activity at human 5HT2B receptor expressed in human Flp-In-293 cells assessed as beta-arrestin2 recruitment measured for 60 mins by BRET assay; type: functional, cell-based
[18] = target: T2, 5-hydroxytryptamine receptor 2B; assay: Agonist activity at human 5HT2B receptor expressed in human Flp-In-293 cells assessed as beta-arrestin1 recruitment measured for 60 mins by BRET assay; type: functional, cell-based
[19] = target: T8, 5-hydroxytryptamine receptor 2C (Homo sapiens) (UniProt P28335); conditions: Flp-In-T-REx-293, filed as antagonist, time 1.0 hrs
T8 sequence (whole entry): T1 sequence (P28335 whole entry)

Homo sapiens = species on record: Homo sapiens; assay: Selectivity ratio of Kb for antagonist activity at human 5HT2B receptor to Kb for antagonist activity at human 5HT2C receptor
[20] = target: T2, 5-hydroxytryptamine receptor 2B; conditions: Flp-In-T-REx-293, filed as antagonist, time 1.0 hrs
Adenosine receptor A1 = target: T9, Adenosine receptor A1 (Homo sapiens, UniProt P30542); assay: Displacement of […] from human A1AR expressed in Flp-In-T-REx-293 cells assessed as inhibition constant; type: cell-based
T9 sequence (P30542 whole entry): T3 sequence (whole entry)

[21] = target: T2, 5-hydroxytryptamine receptor 2B; assay: Agonist activity at human 5HT2B receptor expressed in human Flp-In-293 cells assessed as Gq-mediated calcium flux measured for 60 mins by BRET assay; type: functional, cell-based
[22] = target: T4, 5-hydroxytryptamine receptor 2A; assay: Displacement of [3H]ketanserin from human 5-HT2A receptor expressed in HEK293 cells at 10 uM incubated for 1 hr; type: cell-based
Mu-type opioid receptor = Mu-type opioid receptor (Homo sapiens, UniProt P35372); assay: Binding affinity to MOR (unknown origin) assessed as inhibition constant
Mu-type opioid receptor, sequence (P35372 whole entry): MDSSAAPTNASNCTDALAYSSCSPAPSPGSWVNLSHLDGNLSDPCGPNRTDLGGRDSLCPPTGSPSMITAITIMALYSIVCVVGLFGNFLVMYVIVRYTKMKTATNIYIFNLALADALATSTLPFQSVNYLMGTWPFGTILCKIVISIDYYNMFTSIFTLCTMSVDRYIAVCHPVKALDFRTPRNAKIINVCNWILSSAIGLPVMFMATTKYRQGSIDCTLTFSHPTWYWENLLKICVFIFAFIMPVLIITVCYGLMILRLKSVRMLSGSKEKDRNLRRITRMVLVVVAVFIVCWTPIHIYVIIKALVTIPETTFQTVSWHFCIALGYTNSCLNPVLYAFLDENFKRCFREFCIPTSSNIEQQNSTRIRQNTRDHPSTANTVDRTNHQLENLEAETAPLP

[23] = target: T10, Alpha-2C adrenergic receptor (Homo sapiens, UniProt P18825); assay: Binding affinity to alpha2C receptor (unknown origin) assessed as inhibition constant
T10 sequence (P18825 whole entry): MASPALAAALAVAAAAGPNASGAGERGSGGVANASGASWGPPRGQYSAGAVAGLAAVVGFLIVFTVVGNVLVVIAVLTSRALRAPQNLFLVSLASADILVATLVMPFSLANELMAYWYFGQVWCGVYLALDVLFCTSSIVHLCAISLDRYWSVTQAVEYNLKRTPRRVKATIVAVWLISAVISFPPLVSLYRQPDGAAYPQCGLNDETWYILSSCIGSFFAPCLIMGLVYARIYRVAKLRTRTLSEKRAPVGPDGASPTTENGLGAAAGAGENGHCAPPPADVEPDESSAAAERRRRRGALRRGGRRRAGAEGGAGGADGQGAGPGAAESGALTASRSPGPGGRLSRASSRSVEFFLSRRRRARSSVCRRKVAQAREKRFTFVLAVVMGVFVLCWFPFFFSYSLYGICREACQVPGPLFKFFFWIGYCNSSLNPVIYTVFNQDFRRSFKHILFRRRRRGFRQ

[24] = target: T8, 5-hydroxytryptamine receptor 2C (Homo sapiens); assay: Binding affinity to 5HT2C receptor (unknown origin) at 10 uM relative to control
[25] = target: Sodium-dependent dopamine transporter (Homo sapiens, UniProt Q01959); assay: Binding affinity to DAT (unknown origin) assessed as inhibition constant
Sodium-dependent dopamine transporter, sequence (Q01959 whole entry): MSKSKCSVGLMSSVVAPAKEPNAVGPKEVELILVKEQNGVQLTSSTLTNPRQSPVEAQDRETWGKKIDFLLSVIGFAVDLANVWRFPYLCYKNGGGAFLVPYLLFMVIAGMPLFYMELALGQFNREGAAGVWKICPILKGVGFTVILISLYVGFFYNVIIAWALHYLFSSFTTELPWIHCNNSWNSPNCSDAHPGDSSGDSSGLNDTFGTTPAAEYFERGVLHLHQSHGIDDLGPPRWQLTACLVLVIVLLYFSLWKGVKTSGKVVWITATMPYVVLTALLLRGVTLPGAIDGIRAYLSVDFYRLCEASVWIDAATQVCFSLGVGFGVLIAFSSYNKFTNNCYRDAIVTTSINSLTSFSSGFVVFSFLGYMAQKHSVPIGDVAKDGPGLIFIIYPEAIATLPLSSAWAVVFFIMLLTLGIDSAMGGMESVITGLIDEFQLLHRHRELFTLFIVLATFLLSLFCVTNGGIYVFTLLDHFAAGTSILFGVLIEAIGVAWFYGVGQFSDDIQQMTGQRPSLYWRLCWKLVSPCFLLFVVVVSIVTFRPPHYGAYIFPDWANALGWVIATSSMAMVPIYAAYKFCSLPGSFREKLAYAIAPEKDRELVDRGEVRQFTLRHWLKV

[26] = target: T8, 5-hydroxytryptamine receptor 2C (Homo sapiens); assay: Displacement of [3H]-Mesulergine from human 5-HT2C expressed in Flp-In-T-REx-293 cells at 10 uM incubated for 1 hr relative to control; type: cell-based

## O[C@H]1[C@H](n2cnc3c(NC(C4CCC4)C4CCC4)nc(Cl)nc32)[C@H]2C[C@@]2(CSc2ccccc2F)[C@H]1O
[1]
  Ki: 1.25 µM
[2]
  Ki: 0.601 µM
[3]
  Activity: 45%
[4]
  Activity: 21%

## OC[C@H]1O[C@@H](n2cnc3c(NC(C4CCC4)C4CCC4)nc(Cl)nc32)[C@H](O)[C@@H]1O
[5]
  Activity: 47%
[4]
  Activity: 31%

## O[C@H]1[C@H](n2cnc3c(NC(C4CCCCC4)C4CCCCC4)nc(Cl)nc32)[C@H]2C[C@@]2(CF)[C@H]1O
[6]
  Activity: -27%
[7]
  Ki: 5.5 µM
[8]
  Ki: 0.163 µM
[9]
  Ki: 3.6 µM
Adenosine receptor A3
  Ki: 5.04 µM

## Clc1nc(NCC2CC2)c2nc[nH]c2n1
[10]
  Activity: 29%
[11]
  Activity: 49%

## COc1ccc(SC[C@@]23C[C@@H]2[C@@H](n2cnc4c(NC(C5CCCC5)C5CCCC5)nc(Cl)nc42)[C@H](O)[C@@H]3O)cc1OC
[6]
  Activity: 19%
[12]
  Ki: 0.256 µM
[13]; filed as agonist
  Activity: 78%
[14]
  Activity: 25%
[8]
  Ki: 0.368 µM
[15]
  Ki: 2.1 µM

## CSC[C@@]12C[C@@H]1[C@@H](n1cnc3c(NC(C4CCCC4)C4CCCC4)nc(Cl)nc31)[C@H](O)[C@@H]2O
[6]
  Activity: -12%
[14]; filed as antagonist
  Activity: 47%
[8]
  Ki: 0.481 µM
[9]
  Ki: 1.7 µM
Adenosine receptor A3
  Ki: 5.27 µM

## CCOC(=O)[C@@]12C[C@@H]1[C@@H](n1cnc3c(N[C@H](C4CCC4)C4CC4)nc(I)nc31)[C@H](O)[C@@H]2O
[16]
  pKb: < 5
[6]
  Activity: 15%
[17]
  Activity: inactive
[12]
  Ki: 0.033 µM
[18]
  Activity: inactive
[19]
  pKb: 7.11
[13]; filed as agonist
  Activity: 83%
[14]
  Activity: 13%
Homo sapiens
  Ratio: 44.7
[8]
  Ki: 0.331 µM
[20]
  pKb: 8.76
Adenosine receptor A1
  Ki: 2.18 µM
[21]
  Activity: inactive

## O[C@H]1[C@H](n2cnc3c(NC(C4CCCC4)C4CCCC4)nc(Cl)nc32)[C@H]2C[C@@]2(CCl)[C@H]1O
[22]
  Ki: 6.47 µM
[6]
  Activity: 36%
[7]
  Ki: 6.5 µM
Mu-type opioid receptor
  Ki: 5.7 µM
[23]
  Ki: 2.5 µM
Adenosine receptor A1
  Ki: 0.529 µM
Adenosine receptor A3
  Ki: 8.26 µM

## O[C@@H]1[C@H](O)[C@@H]2C[C@@H]2[C@H]1n1ccc2c(NC(C3CC3)C3CC3)nc(I)nc21
[2]
  Ki: 1.3 µM
  pKi: 5.88
[24]
  Activity: 30%
[4]
  Activity: 3%

## O[C@H]1[C@H](n2cnc3c(NC(C4CCCC4)C4CCCC4)nc(Cl)nc32)[C@H]2C[C@@]2(CF)[C@H]1O
[6]
  Activity: 21%
[25]
  Ki: 7.9 µM
[14]
  Activity: 36%
[8]
  Ki: 0.58 µM
Adenosine receptor A1
  Ki: 1.62 µM
Adenosine receptor A3
  Ki: 7.2 µM

## OC[C@@]12C[C@@H]1[C@@H](n1cnc3c(NC(C4CCCC4)C4CCCC4)nc(Cl)nc31)[C@H](O)[C@@H]2O
[6]
  Activity: -12%
[25]
  Ki: 3.9 µM
[14]
  Activity: 1%

## O[C@H]1[C@H](n2cnc3c(NC(C4CCCC4)C4CCCC4)nc(Cl)nc32)[C@H]2C[C@@]2(CSc2ccccc2F)[C@H]1O
[6]
  Activity: -10%
[12]
  Ki: 0.64 µM
[13]
  Activity: 1%
[14]
  Activity: 36%
[26]
  Activity: 37%
Mu-type opioid receptor
  Ki: 4.9 µM

## CNC(=O)[C@]12C[C@@H]1[C@@H](n1cnc3c(NC4CCCC4)nc(Cl)nc31)[C@H](O)[C@@H]2O
[2]
  Ki: 0.0782 µM
[24]; filed as antagonist
  Activity: 44%
[4]
  Activity: 0%

## CSC[C@@]12C[C@@H]1[C@@H](n1cnc3c(NC(C4CCCC4)C4CCCC4)nc(SC)nc31)[C@H](O)[C@@H]2O
[22]
  Ki: 9.3 µM
[6]
  Activity: -60%
[12]
  Ki: 0.222 µM
[26]; filed as antagonist
  Activity: 49%
[9]
  Ki: 1.2 µM
Adenosine receptor A3
  Ki: 6.62 µM
